In ChEMBL document CHEMBL4270566, “New aziridine-based inhibitors of cathepsin L-like cysteine proteases with selectivity for the Leishmania cysteine protease LmCPB2.8” (Eur J Med Chem, 2018):
Active and inactive are the calls of the source. The calls are words filed in the database; no cut-off is given here.

Assays:
[1] = biological target: T1, Cathepsin B-like protease (Leishmania major, UniProt P90627); test: Inhibition of Leishmania major MHOM/IL/81/FE/BNI His6-tagged CPC expressed in Pichia pastoris using Cbz-Phe-Arg-AMC as substrate by fluorescence spectrometric method; conditions: read-out: Ki(app)
T1 sequence (P90627 whole entry): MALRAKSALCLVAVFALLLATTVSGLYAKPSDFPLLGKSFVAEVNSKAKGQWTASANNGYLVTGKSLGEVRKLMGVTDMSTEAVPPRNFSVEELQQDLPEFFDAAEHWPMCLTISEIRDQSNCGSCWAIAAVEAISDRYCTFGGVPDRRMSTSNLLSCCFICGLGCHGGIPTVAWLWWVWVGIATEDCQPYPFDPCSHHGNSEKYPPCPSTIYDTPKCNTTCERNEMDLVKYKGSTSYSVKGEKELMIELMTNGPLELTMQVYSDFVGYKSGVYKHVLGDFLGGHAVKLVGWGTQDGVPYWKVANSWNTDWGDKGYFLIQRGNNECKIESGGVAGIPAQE

[2] = tested on: Leishmania major; test: Antileishmanial activity against luciferase-fused Leishmania major amastigotes infected in BMDM after 24 hrs by luminescence assay; format: functional, organism-based
[3] = tested on: J774; test: Cytotoxicity against mouse J774 cells; format: cell-based
[4] = biological target: T2, Falcipain 2 (Plasmodium falciparum) (UniProt Q9N6S8); test: Inhibition of Plasmodium falciparum falcipain 2 at 20 uM using Z-Phe-Arg-AMC as substrate by fluorometric assay relative to control
T2 sequence (whole entry): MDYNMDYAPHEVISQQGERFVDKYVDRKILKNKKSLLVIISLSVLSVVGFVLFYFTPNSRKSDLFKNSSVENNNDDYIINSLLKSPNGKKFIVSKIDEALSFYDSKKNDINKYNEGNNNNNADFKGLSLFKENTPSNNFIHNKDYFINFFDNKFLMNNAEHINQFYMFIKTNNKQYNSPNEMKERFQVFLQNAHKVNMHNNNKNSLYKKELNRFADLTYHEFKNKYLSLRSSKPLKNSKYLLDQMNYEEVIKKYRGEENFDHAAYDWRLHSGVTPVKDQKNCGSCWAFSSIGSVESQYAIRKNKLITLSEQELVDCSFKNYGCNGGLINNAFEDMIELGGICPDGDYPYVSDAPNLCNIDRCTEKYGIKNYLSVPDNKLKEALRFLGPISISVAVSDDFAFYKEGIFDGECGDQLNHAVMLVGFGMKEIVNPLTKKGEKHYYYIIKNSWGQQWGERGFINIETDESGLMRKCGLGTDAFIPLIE

[5] = Inhibition of Leishmania mexicana cathepsin L-like protease CPB2.8 using Z-Phe-Arg-AMC as substrate by fluorometric assay
[6] = biological target: T3, Cathepsin B (Homo sapiens, UniProt P07858); test: Inhibition of human cathepsin-B at 20 uM using Z-Phe-Arg-AMC as substrate by fluorometric assay relative to control
[7] = biological target: Cruzipain (Trypanosoma cruzi) (UniProt P25779); test: Inhibition of Trypanosoma cruzi cruzain at 20 uM using Z-Phe-Arg-AMC as substrate by fluorometric assay relative to control
Sequence of Cruzipain (Trypanosoma cruzi) (P25779 123-467 limits assumed): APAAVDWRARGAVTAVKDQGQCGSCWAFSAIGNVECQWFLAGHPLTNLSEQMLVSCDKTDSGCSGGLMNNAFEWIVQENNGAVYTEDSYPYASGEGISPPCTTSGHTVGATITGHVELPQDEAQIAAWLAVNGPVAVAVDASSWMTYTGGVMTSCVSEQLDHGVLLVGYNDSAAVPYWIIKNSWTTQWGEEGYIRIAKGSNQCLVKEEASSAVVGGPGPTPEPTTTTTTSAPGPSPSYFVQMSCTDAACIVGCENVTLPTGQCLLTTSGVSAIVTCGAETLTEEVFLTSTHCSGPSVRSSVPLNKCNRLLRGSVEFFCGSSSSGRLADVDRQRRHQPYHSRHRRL

[8] = tested on: Leishmania major; test: Antileishmanial activity against Leishmania major promastigotes; format: functional, organism-based
[9] = biological target: Rhodesain (Trypanosoma brucei rhodesiense, UniProt Q95PM0); test: Inhibition of Trypanosoma brucei rhodesiense rhodesain using Z-Phe-Arg-AMC as substrate by fluorometric assay
Sequence of Rhodesain (Q95PM0 whole entry): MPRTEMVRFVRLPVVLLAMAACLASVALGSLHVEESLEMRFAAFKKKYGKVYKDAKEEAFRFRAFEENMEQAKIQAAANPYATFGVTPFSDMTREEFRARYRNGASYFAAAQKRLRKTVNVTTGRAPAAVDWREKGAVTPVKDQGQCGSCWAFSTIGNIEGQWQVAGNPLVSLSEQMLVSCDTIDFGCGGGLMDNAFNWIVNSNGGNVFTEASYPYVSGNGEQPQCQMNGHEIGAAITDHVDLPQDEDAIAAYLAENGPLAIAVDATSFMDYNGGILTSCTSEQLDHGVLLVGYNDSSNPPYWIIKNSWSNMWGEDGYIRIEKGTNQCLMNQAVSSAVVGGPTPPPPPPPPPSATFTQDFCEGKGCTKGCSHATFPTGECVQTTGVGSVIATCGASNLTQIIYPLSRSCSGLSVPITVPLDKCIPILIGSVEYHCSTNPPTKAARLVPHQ

[10] = biological target: T4, Procathepsin L (Homo sapiens, UniProt P07711); test: Inhibition of human cathepsin-L at 20 uM using Z-Phe-Arg-AMC as substrate by fluorometric assay relative to control
Target sequence in this assay (P07711 114-333 limits assumed): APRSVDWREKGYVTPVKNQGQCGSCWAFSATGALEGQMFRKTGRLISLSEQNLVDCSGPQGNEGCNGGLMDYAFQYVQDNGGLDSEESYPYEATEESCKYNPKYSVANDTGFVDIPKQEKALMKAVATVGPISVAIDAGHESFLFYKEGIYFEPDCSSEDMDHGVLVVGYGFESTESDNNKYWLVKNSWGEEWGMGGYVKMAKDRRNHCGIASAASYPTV

[11] = tested on: Leishmania major; test: Antileishmanial activity against Leishmania major promastigotes at 20 uM; format: functional, organism-based
[12] = biological target: T5, Falcipain 2 (Plasmodium falciparum, UniProt Q9N6S8); test: Inhibition of Plasmodium falciparum falcipain 2 using Z-Phe-Arg-AMC as substrate by fluorometric assay
T5 sequence (Q9N6S8 whole entry): T2 sequence (whole entry)

[13] = biological target: T3, Cathepsin B; test: Inhibition of human cathepsin-B using Z-Phe-Arg-AMC as substrate by fluorometric assay
[14] = biological target: T4, Procathepsin L; test: Inhibition of human cathepsin-L using Z-Phe-Arg-AMC as substrate by fluorometric assay
Target sequence in this assay (P07711 whole entry): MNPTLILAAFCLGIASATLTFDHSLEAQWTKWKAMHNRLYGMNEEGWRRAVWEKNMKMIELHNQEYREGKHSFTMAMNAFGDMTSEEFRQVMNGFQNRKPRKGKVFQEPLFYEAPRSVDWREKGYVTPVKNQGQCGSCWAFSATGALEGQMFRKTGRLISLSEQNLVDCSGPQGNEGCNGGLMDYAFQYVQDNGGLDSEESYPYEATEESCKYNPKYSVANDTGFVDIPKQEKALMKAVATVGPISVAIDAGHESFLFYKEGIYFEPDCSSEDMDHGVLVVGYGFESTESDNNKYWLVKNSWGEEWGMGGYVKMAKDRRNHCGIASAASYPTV

Ki [12] [µM]	Ki [13] [µM]	Ki [14] [µM]	SMILES	Ki [1] [µM]	EC50 [2] [µM]	Activity [3] [µM]	inhibition [4]	Ki [5] [µM]	inhibition [6]	inhibition [7]	EC50 [8] [µM]	Ki [9] [µM]	inhibition [10]	Activity [11]
–	–	–	CC(C)C[C@H](NC(=O)OC(C)(C)C)C(=O)N1CCC[C@@H]1C(=O)N1[C@@H](C(=O)OCc2ccccc2)[C@@H]1C(=O)OCc1ccccc1	18.2	2.3	> 250	inactive	3.8	inactive	inactive	37.4	1.7	inactive	–
0.4	114	0.4	CC(C)C[C@H](NC(=O)OC(C)(C)C)C(=O)N1CCC[C@H]1C(=O)N1[C@@H](C(=O)OCc2ccccc2)[C@@H]1C(=O)OCc1ccccc1	–	–	–	–	–	–	–	–	–	–	inactive
